In a compilation of properties of binary mixtures (doi:10.1021/acs.jced.0c00495):

Experiment: xn = mol fraction of the nth substance listed
Settings: 101.3 kPa

CCCCCC[n+]1ccn(C)c1.F[B-](F)(F)F + Nc1ccccc1
speed of sound [m/s]
Settings | x1 = 0.0989 | x1 = 0.1792 | x1 = 0.2896 | x1 = 0.3924 | x1 = 0.5062 | x1 = 0.6042 | x1 = 0.6986 | x1 = 0.7974 | x1 = 0.8962
293.15 K | 1653 | – | 1618 | 1598 | 1579 | 1565 | – | – | 1539
298.15 K | 1636 | 1623 | 1603 | 1583 | – | – | 1541 | 1532 | 1526
303.15 K | – | 1606 | 1586 | 1568 | 1550 | 1537 | – | 1520 | 1513
308.15 K | 1601 | 1589 | 1571 | 1553 | 1536 | 1524 | 1515 | 1507 | 1501
313.15 K | – | 1572 | 1555 | 1539 | 1522 | 1510 | 1502 | 1494 | 1489
318.15 K | 1565 | 1556 | 1540 | 1525 | 1509 | – | – | 1482 | 1476
323.15 K | 1547 | – | 1525 | – | 1496 | 1485 | 1477 | 1470 | 1464

CCCCCCCCn1cc[n+](C)c1.F[B-](F)(F)F + Nc1ccccc1
speed of sound [m/s]
Settings | x1 = 0.0996 | x1 = 0.1904 | x1 = 0.2853 | x1 = 0.3789 | x1 = 0.4955 | x1 = 0.5783 | x1 = 0.6966 | x1 = 0.7938 | x1 = 0.8958
293.15 K | 1640 | 1619 | 1595 | 1574 | 1553 | 1540 | 1526 | 1516 | –
298.15 K | – | – | 1580 | 1560 | 1539 | 1526 | 1512 | – | 1494
303.15 K | – | – | 1564 | 1545 | 1525 | 1513 | 1499 | 1488 | –
308.15 K | 1589 | – | 1549 | 1530 | 1511 | – | 1485 | 1476 | 1467
313.15 K | – | 1554 | 1534 | – | 1496 | 1485 | 1472 | 1463 | 1454
318.15 K | 1554 | 1538 | 1518 | – | 1483 | 1472 | 1459 | 1450 | 1441
323.15 K | – | – | 1502 | 1486 | 1469 | 1458 | 1446 | – | 1429

Nc1ccccc1 + CCCC[n+]1ccn(C)c1.F[B-](F)(F)F
speed of sound [m/s]
Settings | x2 = 0 | x2 = 0.0925 | x2 = 0.2022 | x2 = 0.2995 | x2 = 0.4002 | x2 = 0.4982 | x2 = 0.5953 | x2 = 0.6935 | x2 = 0.7904 | x2 = 0.9191
293.15 K | – | 1656 | – | 1645 | 1634 | – | 1613 | 1603 | – | 1583
298.15 K | 1638 | – | 1636 | 1630 | 1619 | – | 1600 | 1590 | 1581 | 1571
303.15 K | – | 1623 | 1619 | 1614 | 1604 | 1595 | 1587 | – | – | –
308.15 K | 1599 | 1606 | 1603 | – | 1590 | – | 1573 | 1565 | 1557 | 1548
313.15 K | – | 1588 | 1587 | 1582 | – | 1568 | 1560 | 1553 | 1546 | 1537
318.15 K | 1561 | 1570 | 1571 | 1566 | 1561 | – | 1548 | – | 1534 | 1526
323.15 K | – | 1553 | 1555 | – | – | 1541 | – | 1529 | 1523 | 1516

Nc1ccccc1 + CCCCCC[n+]1ccn(C)c1.F[B-](F)(F)F
x2 = 0
Settings | speed of sound [m/s]
293.15 K | 1657
298.15 K | 1638
303.15 K | 1618
308.15 K | 1599

Nc1ccccc1 + CCCCCCCCn1cc[n+](C)c1.F[B-](F)(F)F
x2 = 0
Settings | speed of sound [m/s]
293.15 K | 1657
298.15 K | 1638
303.15 K | 1618
308.15 K | 1599
318.15 K | 1561
323.15 K | 1542
